Data reported in publication PMC3145970, “Specific CLK Inhibitors from a Novel Chemotype for Regulation of Alternative Splicing” (Chemistry & Biology, 2011).
Read-outs that look alike come from different tables or passages of the source.

Columns and labels:
Assay in all cases: Thermal stability shift assay
Format in all cases: binding
NEK7 = molecular target: T1, NEK7 (Homo sapiens, UniProt Q8TDX7); conditions: read-out: Tm shift NEK7
T1 construct: purchased in-house (SGC Oxford thermal shift panel)
T1 sequence (Q8TDX7 whole entry): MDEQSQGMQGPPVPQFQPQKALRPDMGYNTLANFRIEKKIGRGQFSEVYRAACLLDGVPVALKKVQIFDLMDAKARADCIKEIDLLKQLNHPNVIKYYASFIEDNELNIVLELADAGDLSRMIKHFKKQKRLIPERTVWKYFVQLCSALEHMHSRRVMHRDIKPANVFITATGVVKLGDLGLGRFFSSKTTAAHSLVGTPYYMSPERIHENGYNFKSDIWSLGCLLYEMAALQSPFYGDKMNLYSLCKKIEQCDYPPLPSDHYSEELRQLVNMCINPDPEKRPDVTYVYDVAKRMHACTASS
Summary of the method: (§1)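 Inhibitor (10 μM) was mixed with kinase (2 μM) in HEPES-buffered saline (10 mM, pH 7.5; 500 mM NaCl) plus SyproOrange, then the sample was heated stepwise in a real-time PCR machine to record denaturation.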

MST2 = molecular target: T2, MST2 (Homo sapiens, UniProt Q13188); conditions: read-out: Tm shift MST2
T2 construct: purchased in-house (SGC Oxford thermal shift panel)
T2 sequence (Q13188 1-491): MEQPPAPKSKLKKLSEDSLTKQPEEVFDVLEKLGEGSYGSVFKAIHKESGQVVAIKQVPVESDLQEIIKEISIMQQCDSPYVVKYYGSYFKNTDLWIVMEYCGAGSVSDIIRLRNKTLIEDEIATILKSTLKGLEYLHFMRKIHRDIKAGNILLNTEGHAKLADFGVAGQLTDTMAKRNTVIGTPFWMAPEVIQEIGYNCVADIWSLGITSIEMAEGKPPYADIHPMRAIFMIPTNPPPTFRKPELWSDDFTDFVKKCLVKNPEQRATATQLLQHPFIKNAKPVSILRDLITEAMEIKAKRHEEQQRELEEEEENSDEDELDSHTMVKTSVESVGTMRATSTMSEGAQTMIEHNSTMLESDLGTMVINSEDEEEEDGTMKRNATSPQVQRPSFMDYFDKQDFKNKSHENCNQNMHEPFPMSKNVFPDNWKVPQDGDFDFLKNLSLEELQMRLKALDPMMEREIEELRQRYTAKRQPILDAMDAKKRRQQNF
Summary of the method: as §1

PKD3 = molecular target: T3, PKD3 (Homo sapiens, UniProt O94806); conditions: read-out: Tm shift PKD3
T3 sequence (O94806 1-890): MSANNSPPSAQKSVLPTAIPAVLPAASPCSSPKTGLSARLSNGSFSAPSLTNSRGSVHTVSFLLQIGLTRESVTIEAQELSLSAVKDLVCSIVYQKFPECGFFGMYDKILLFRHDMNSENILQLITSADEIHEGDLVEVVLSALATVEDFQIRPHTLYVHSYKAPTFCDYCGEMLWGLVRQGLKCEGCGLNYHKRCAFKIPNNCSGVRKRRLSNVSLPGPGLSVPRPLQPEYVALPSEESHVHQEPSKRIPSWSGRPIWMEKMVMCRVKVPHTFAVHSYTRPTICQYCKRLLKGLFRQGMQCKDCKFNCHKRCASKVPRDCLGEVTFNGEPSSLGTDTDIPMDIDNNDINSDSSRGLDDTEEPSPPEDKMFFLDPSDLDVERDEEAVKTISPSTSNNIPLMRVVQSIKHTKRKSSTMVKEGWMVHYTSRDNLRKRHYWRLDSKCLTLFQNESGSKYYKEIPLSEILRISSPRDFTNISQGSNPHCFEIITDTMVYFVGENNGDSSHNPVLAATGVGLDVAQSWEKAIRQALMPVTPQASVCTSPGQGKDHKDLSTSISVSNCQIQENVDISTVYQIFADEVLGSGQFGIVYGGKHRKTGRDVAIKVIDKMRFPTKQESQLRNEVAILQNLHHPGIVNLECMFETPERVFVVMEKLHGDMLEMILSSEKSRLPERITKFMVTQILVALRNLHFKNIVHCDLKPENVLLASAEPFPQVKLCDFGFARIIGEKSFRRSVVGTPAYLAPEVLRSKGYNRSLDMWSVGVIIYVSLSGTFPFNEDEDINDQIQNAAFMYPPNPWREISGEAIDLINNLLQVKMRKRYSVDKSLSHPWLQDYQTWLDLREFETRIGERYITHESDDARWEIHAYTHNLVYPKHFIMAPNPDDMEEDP
Summary of the method: as §1

PKN2 = PKN2 (Homo sapiens, UniProt Q16513); conditions: read-out: Tm shift PKN2
Sequence of PKN2 (Q16513 whole entry): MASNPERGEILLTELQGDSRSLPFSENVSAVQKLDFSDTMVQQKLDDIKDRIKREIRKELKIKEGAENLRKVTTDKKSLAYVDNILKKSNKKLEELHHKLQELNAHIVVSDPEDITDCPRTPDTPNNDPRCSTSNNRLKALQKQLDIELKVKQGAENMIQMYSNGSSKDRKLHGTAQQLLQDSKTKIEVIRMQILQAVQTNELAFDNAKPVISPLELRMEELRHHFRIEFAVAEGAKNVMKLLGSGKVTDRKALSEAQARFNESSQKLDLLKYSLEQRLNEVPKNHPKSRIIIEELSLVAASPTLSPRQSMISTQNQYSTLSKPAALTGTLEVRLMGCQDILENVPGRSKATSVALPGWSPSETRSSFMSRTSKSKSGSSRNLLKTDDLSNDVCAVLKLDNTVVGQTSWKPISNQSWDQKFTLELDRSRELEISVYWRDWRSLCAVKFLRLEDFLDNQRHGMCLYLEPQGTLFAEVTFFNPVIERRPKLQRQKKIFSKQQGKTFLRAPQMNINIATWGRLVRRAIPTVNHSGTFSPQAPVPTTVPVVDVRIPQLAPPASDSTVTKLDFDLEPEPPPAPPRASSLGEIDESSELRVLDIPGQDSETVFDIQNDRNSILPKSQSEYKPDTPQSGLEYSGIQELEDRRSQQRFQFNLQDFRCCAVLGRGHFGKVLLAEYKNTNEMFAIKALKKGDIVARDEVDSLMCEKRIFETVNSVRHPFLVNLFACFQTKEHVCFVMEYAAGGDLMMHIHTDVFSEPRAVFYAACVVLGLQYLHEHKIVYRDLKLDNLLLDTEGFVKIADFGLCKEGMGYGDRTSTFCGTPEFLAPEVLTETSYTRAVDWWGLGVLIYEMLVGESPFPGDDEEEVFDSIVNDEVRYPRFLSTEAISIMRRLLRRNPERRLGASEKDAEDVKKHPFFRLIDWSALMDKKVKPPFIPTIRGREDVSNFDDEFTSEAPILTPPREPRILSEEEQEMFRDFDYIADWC
Summary of the method: as §1

YANK1 = YANK1 (Homo sapiens, UniProt Q8WU08); conditions: read-out: Tm shift YANK1
Sequence of YANK1 (Q8WU08 whole entry): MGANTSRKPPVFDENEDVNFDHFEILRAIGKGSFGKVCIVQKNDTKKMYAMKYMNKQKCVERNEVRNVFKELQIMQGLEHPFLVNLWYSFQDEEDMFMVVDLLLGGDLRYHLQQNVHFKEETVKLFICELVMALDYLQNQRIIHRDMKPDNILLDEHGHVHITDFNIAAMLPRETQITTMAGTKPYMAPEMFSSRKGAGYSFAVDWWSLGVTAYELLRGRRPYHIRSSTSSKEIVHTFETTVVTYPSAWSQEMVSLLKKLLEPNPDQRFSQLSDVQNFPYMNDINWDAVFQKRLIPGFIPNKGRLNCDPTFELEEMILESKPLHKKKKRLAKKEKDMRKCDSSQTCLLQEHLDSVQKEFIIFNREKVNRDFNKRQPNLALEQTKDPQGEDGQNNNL
Summary of the method: as §1

FGR = molecular target: T4, FGR (Homo sapiens, UniProt P09769); conditions: read-out: Tm shift FGR
T4 construct: purchased in-house (SGC Oxford thermal shift panel)
T4 sequence (P09769 whole entry): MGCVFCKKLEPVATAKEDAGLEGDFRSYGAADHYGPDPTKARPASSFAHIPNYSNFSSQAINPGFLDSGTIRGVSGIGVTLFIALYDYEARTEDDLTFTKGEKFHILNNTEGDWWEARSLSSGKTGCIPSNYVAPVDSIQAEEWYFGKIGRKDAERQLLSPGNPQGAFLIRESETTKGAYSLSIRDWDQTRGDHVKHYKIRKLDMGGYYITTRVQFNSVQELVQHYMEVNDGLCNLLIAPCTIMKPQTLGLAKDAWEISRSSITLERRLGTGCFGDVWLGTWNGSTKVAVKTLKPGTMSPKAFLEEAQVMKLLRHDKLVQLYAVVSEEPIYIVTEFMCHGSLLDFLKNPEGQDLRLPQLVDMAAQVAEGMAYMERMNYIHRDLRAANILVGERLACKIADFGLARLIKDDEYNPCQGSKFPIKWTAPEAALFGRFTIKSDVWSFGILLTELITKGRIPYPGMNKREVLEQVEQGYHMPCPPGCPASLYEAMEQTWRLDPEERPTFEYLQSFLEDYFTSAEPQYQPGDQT
Summary of the method: as §1

IKKb = molecular target: T5, IKKb (Homo sapiens, UniProt O14920); conditions: read-out: Tm shift IKKb
T5 construct: purchased in-house (SGC Oxford thermal shift panel)
T5 sequence (O14920 1-756): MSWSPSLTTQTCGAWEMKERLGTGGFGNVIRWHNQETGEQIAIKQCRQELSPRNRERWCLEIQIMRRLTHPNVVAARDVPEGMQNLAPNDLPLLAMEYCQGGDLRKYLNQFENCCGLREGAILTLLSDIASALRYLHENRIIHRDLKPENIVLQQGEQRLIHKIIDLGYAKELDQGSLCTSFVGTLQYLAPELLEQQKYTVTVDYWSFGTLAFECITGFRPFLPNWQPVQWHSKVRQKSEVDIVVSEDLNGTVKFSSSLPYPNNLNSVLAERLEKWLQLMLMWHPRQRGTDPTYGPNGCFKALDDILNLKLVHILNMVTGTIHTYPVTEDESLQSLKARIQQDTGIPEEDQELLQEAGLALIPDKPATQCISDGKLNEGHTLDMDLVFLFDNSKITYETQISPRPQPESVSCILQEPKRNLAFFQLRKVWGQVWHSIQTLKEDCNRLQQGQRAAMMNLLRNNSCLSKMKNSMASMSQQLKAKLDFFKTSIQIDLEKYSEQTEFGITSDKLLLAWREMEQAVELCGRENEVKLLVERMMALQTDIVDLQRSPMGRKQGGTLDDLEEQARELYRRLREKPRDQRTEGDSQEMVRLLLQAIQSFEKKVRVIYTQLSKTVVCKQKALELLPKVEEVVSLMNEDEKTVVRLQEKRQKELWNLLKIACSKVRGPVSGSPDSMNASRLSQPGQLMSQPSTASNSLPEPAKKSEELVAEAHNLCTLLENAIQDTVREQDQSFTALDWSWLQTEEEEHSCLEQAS
Summary of the method: as §1

MAP2K2 = molecular target: T6, MAP2K2 (Homo sapiens, UniProt P36507); conditions: read-out: Tm shift MAP2K2
T6 construct: purchased in-house (SGC Oxford thermal shift panel)
T6 sequence (P36507 whole entry): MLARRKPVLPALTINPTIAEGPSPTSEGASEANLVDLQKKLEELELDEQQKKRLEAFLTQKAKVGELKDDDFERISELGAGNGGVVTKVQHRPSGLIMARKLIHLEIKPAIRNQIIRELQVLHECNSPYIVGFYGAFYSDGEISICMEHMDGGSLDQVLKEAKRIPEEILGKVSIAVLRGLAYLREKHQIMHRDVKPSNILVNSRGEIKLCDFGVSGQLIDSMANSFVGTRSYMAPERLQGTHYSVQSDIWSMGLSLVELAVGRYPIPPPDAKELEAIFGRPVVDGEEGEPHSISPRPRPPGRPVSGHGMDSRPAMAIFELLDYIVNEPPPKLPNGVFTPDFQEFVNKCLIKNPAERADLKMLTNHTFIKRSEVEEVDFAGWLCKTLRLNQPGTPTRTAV
Summary of the method: as §1

VRK2 = VRK2 (Homo sapiens, UniProt Q86Y07); conditions: read-out: Tm shift VRK2
Sequence of VRK2 (Q86Y07 whole entry): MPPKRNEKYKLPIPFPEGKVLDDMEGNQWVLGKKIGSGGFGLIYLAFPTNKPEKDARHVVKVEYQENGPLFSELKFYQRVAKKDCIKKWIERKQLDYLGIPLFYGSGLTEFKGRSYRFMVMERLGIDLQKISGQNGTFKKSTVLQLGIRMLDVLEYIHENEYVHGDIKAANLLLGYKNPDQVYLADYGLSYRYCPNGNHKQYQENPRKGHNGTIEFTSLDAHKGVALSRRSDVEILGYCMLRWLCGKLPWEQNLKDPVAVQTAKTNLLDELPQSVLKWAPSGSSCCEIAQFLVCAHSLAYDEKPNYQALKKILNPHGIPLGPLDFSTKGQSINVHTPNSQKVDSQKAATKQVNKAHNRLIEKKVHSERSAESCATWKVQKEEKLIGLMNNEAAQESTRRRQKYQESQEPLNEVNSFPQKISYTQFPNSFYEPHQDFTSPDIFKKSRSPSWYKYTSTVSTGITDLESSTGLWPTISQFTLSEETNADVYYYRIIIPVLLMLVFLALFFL
Summary of the method: as §1

PKACa = PKACa (Homo sapiens, UniProt P17612); conditions: read-out: Tm shift PKACa
Summary of the method: as §1

ZAK = ZAK (Homo sapiens, UniProt Q9NYL2); conditions: read-out: Tm shift ZAK
Sequence of ZAK (Q9NYL2 whole entry): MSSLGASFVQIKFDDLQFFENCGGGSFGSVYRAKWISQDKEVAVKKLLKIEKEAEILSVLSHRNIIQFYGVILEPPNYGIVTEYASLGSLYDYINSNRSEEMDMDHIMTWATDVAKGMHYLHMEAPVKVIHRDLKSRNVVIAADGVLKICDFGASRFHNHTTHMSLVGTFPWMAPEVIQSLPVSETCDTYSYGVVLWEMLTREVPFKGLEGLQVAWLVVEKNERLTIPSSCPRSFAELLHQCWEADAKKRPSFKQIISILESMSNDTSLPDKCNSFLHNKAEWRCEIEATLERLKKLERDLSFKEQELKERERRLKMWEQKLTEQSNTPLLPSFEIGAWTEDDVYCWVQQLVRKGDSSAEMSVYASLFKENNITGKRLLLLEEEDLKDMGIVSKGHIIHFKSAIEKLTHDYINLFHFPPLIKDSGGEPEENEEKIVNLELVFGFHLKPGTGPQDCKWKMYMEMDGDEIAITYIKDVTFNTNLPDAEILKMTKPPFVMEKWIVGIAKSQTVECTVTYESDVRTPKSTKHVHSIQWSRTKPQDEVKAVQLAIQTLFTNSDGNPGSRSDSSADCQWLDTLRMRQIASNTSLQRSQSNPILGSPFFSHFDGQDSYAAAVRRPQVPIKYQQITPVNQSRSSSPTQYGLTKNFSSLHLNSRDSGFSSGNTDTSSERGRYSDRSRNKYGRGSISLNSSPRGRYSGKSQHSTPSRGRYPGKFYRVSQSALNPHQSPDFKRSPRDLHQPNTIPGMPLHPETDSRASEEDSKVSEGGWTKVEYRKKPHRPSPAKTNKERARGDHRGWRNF
Summary of the method: as §1

Row | ΔTm at 10 µM (NEK7; inhibitor 10 μM) [°C] | ΔTm at 10 µM (MST2; inhibitor 10 μM) [°C] | ΔTm at 10 µM (PKD3; inhibitor 10 μM) [°C] | ΔTm at 10 µM (PKN2; inhibitor 10 μM) [°C] | ΔTm at 10 µM (YANK1; inhibitor 10 μM) [°C] | ΔTm at 10 µM (FGR; inhibitor 10 μM) [°C] | ΔTm at 10 µM (IKKb; inhibitor 10 μM) [°C] | ΔTm at 10 µM (MAP2K2; inhibitor 10 μM) [°C] | ΔTm at 10 µM (VRK2; inhibitor 10 μM) [°C] | ΔTm at 10 µM (PKACa; inhibitor 10 μM) [°C] | ΔTm at 10 µM (ZAK; inhibitor 10 μM) [°C] | SMILES | ΔTm at 10 µM (NEK7) [°C] | ΔTm at 10 µM (MST2) [°C] | ΔTm at 10 µM (PKD3) [°C] | ΔTm at 10 µM (PKN2) [°C] | ΔTm at 10 µM (YANK1) [°C] | ΔTm at 10 µM (FGR) [°C] | ΔTm at 10 µM (IKKb) [°C] | ΔTm at 10 µM (MAP2K2) [°C] | ΔTm at 10 µM (VRK2) [°C] | further results
1 | -0.7 | 0.3 | 0 | -0.5 | 0 | -0.2 | 0.6 | -0.4 | 0.2 | 0.2 | -0.4 | CCOC(=O)c1c(C(C#N)=CN(C)C)c2ccc(Cl)c(Cl)c2n1C (mixture of isomers) [compound 2, (E/Z)-Ethyl 6,7-Dichloro-3-[1-Cyano-2-(Dimethylamino)Vinyl]-1-Methyl-1H-Indole-2-Carboxylate] |  |  |  |  |  |  |  |  |  | 
2 |  |  |  |  |  |  |  |  |  |  |  | CCOC(=O)c1c(/C(C#N)=C\N)c2ccc(Cl)c(Cl)c2n1C [KH-CB19, (E)-Ethyl 3-(2-Amino-1-Cyanovinyl)-6,7-Dichloro-1-Methyl-1H-Indole-2-Carboxylate] | 0 | 0.2 | 0.1 | 0.6 | -0.2 | -0.3 | -0.1 | 0.1 | -0.1 | ΔTm at 10 µM (PKACa): 0 °C; ΔTm at 10 µM (ZAK): -0.3 °C
3 |  |  |  |  |  |  |  |  |  |  |  | CCOC(=O)c1c(C(C#N)=CN)c2ccc(Cl)c(Cl)c2n1C (mixture of isomers) [KH-CB20, (E/Z)-Ethyl 3-(2-Amino-1-Cyanovinyl)-6,7-Dichloro-1-Methyl-1H-Indole-2-Carboxylate] | 0.1 | 0.4 | 0.3 | 0.1 | -0.3 | 0.3 | 0.1 | 0 | 0.1 | ΔTm at 10 µM (PKACa): 0.3 °C; ΔTm at 10 µM (ZAK): -0.1 °C
4 | 0.6 | -0.5 | 0.4 | 2.3 | 0.3 | 0.1 | 0.5 | 0.1 | 0.1 | 0.4 | -0.2 | Cn1c2c(Cl)c(Cl)ccc2c2c(C#N)c[nH]c(=O)c21 [compound 3, 7,8-Dichloro-9-Methyl-1-Oxo-2,9-Dihydro-1H-Pyrido[3,4-b]Indole-4-Carbonitrile] |  |  |  |  |  |  |  |  |  | 

Row | SMILES | ΔTm at 10 µM (NEK7; inhibitor 10 μM) [°C] | ΔTm at 10 µM (MST2; inhibitor 10 μM) [°C] | ΔTm at 10 µM (PKD3; inhibitor 10 μM) [°C] | ΔTm at 10 µM (PKN2; inhibitor 10 μM) [°C] | ΔTm at 10 µM (YANK1; inhibitor 10 μM) [°C] | ΔTm at 10 µM (FGR; inhibitor 10 μM) [°C] | ΔTm at 10 µM (IKKb; inhibitor 10 μM) [°C] | ΔTm at 10 µM (MAP2K2; inhibitor 10 μM) [°C] | ΔTm at 10 µM (VRK2; inhibitor 10 μM) [°C] | ΔTm at 10 µM (PKACa; inhibitor 10 μM) [°C] | ΔTm at 10 µM (ZAK; inhibitor 10 μM) [°C] | ΔTm at 10 µM (NEK7) [°C] | ΔTm at 10 µM (MST2) [°C] | ΔTm at 10 µM (PKD3) [°C] | ΔTm at 10 µM (PKN2) [°C] | ΔTm at 10 µM (YANK1) [°C] | ΔTm at 10 µM (FGR) [°C] | ΔTm at 10 µM (IKKb) [°C] | ΔTm at 10 µM (MAP2K2) [°C] | ΔTm at 10 µM (VRK2) [°C] | further results
5 | NC1=NC(=O)/C(=C2\CCNC(=O)c3[nH]c(Br)cc32)N1 [Hymenialdisine, hymenialdisine, reference compound] | 0.6 | 3.9 | 2 | 0.8 | 0 | 0.7 | 0.7 | 2 | 0.8 | 0.8 | 1.7 |  |  |  |  |  |  |  |  |  | 
